Measurements: US11912755B2, “Endostatin fragments and variants for use in treating fibrosis” (iBio, Inc., priority 2015, dated 2024)
“Also recorded” adds a separate entry of the source. Ends that are not written are not given here.

How the values were obtained:
[1] = test system: MMP-1; assay: Genes regulated by E4: MMP-1; type: cell-based, human; details: HuF-T; RT-qPCR, protein expression levels, zymography, MMP-1 activity assay
Protocol: (§1) Several experiments have been performed to identify the mechanisms by which E4 exerts its anti-fibrotic activity. Real-time quantitative PCR (qPCR)-based arrays were performed on RNA extracted from primary human lung fibroblasts or mouse lung tissue stimulated with various fibrotic triggers in the absence and presence of E4 treatment in order to identify genes influenced by the endostatin peptide.
(§2) The arrays identified several genes that have been previously implicated in fibrosis to be influenced by E4 treatment. These genes included connective tissue growth factor (CTGF), insulin-like growth factor binding protein (IGFBP)-3, matrix metalloproteases (MMP)-1 and MMP-3, urokinase plasminogen activator (uPA), plasminogen activator inhibitor (PAI)-1, and hepatocyte growth factor (HGF) with levels either decreased or increased in the presence of E4 as shown in TABLE 5.

[2] = test system: human skin explants; assay: Ex vivo human skin assay, dermal thickness; type: cell-based
Protocol: Ex vivo human skin assays. Human abdominal skin was obtained from corrective plastic surgery. As previously described (Yasuoka et al., The Open Rheumatol J 2008; 2:17-22), subcutaneous fat tissue was removed uniformly and skin tissue was cut into 1.5 cm×1.5 cm sections. The following were injected intradermally in a total volume of 100 μl 1×PBS: rE alone (1-10 μg/ml), endostatin peptides alone (10 μg/ml), rE or endostatin peptides (1-20 μg/ml) in combination with TGF-β (10 ng/ml), and TGF-β alone (10 ng/ml). In some experiments, human skin was first injected with TGF-β for 48 h followed by recombinant endostatin (rE) administration in the same injection site as TGF-β. Explants containing complete epidermal and dermal layers were cultured in an air liquid interface with the epidermal and keratin layers side up and exposed to air. The culture medium was replaced every other day. After 1 or 2 weeks, skin tissue corresponding to an area with 8-mm diameter centered around the injection site was harvested using disposable 8-mm ACUPUNCH® (Acuderm, Inc., Lauderdale, FL). Skin tissue was fixed in 10% formalin prior to embedding in paraffin.
Measurement of Skin Dermal Thickness. Six μm sections of paraffin-embedded human and mouse skin tissues were stained with hematoxylin and eosin (H&E). In some experiments, sections were stained with Masson trichrome which identifies collagens. Images were taken on a Nikon Eclipse 800 microscope. The thickness of the dermis was measured in 6 random fields of each section using the image/J® software. Data are shown in arbitrary units.

[3] = test system: lysyl oxidase (LOX); assay: LOX Western blot in conditioned media of primary human lung fibroblasts; type: cell-based; details: TGF-β followed 30 min later by E4; 48 h
Protocol: FIG. 13. E4 reduces fibrosis in vitro by blocking TGF-β-induced LOX production in primary human lung fibroblasts. Normal lung fibroblasts in passage 4 were treated with vehicle, E4, TGF-β, or TGF-β followed 30 min. later by E4. Media conditioned by the fibroblasts were analyzed using Western blot analysis after 48 hour. Lane 1: Vehicle (DMSO); Lane 2: E-4; Lane 3: TGF-β; Lane 4: TGF-β followed by E4. Similar results were obtained when LOX mRNA levels were examined by real-time PCR.
E4-mediated reduction of LOX was detected also was detected in vitro. Normal lung fibroblasts in passage 4 were treated with vehicle, E4, TGF-β, or TGF-β followed 30 minutes later by E4 (FIG. 13). Media conditioned by the fibroblasts were analyzed using Western blot analysis after 48 hrs. […] Similar results were obtained when LOX mRNA levels were examined by real-time PCR.

[4] = test system: human primary lung fibroblasts; assay: Western blot of FN, Col1α1 and α-SMA in primary lung fibroblasts; type: cell-based
Protocol: Primary Fibroblast Culture. Human primary lung and skin fibroblasts were cultured. The explanted lungs of normal organ donors, patients with SSc or IPF, and clinically involved skin of SSc patients, a morphea patient and healthy donors were used for primary fibroblast culture. Approximately 2-cm pieces of peripheral lung and skin were minced and fibroblasts were cultured in Dulbecco's modified Eagle's medium (DMEM; Mediatech, Herndon, Va.) supplemented with 10% FBS, penicillin, streptomycin, and anti-mycotic agent, as previously described (Feghali et al., Arthritis Rheum 1999; 42:1451-7). All the cells were used between passages 3-6.
Western Blot Analysis. Cellular lysates were obtained from cultured fibroblasts as previously described (Pilewski et al., Am J Pathol 2005; 166:399-407). Briefly, 2.0×10^5 primary fibroblasts were cultured in 35-mm wells in 0.5% FBS-containing medium supplemented with 10 ng/ml of human recombinant TGF-β or PBS as vehicle control for 24 h, […] In some experiments, endostatin peptides were used without TGF-β stimulation. Cellular lysates were analyzed by Western blot. Signals were detected following incubation with horseradish peroxidase-conjugated secondary antibody and chemiluminescence (Perkin Elmer Life Sciences, Inc., Boston, Mass.). The intensity of individual bands with expected molecular sizes was semi-quantitatively analyzed using the image/J® software available at on the Internet (/rsb.info.nih.gov/ij/index.html), and normalized to individual GAPDH intensity.

[5] = test system: PAI-1; assay: Genes regulated by E4: PAI-1; type: cell-based, human; details: HuF-T and mouse bleomycin model of pulmonary fibrosis; RT-qPCR, protein expression
Protocol: as §1, §2

[6] = IPF fibroblasts, 5, 10 and 20 μg/ml, vs vehicle control

Question: Which “Effect of E4 peptide on MMP-1” value [1] does the source give for “E4: SEQ ID NO: 21, amino acids 133-180 of human endostatin with a C-terminal amide (SYCETWRTEAPSATGQASSLLGGRLLGQSAASCHHAYIVLCIENSFMT-NH2; cysteine pairing not given here)” here?
Answer: induces; also recorded: Increase; also recorded: increased levels and activity

Question: What about the “TGF-β-induced skin fibrosis, dose response” value ([2]; concentrations of 5-20 μg/ml with TGF-β) of the same substance?
Answer: clearly ameliorated

Question: What about the “dermal thickness, baseline effect” value ([2]; injected alone, no TGF-β, rE 1, 5, 10 μg/ml, peptides 10 μg/ml) of the same substance?
Answer: tendency towards reduction

Question: And the “development of fibrosis as measured by dermal thickness” value ([2]; peptides 10 μg/ml with 10 ng/ml TGF-β, vs TGF-β alone)?
Answer: significantly abolished

Question: What about the “TGF-β-induced LOX production” value [3] of the same substance?
Answer: significantly reduced; also recorded: blocking

Question: And the Col1α1 levels [4, 6]?
Answer: dose-dependently reduced

Question: What about the FN levels [4, 6] of the same substance?
Answer: modest effect

Question: And the “FN and Col1α1 levels” value ([4]; fibrotic (IPF) lung fibroblasts, absence of TGF-β stimulation)?
Answer: decreased

Question: What about the “FN and Col1α1 levels” value ([4]; normal human lung fibroblasts, TGF-β 24 h, then 5 μg/ml for 48 h) of the same substance?
Answer: significantly suppressed

Question: What about the “TGF-β-induced α-SMA levels” value ([4]; normal lung fibroblasts) of the same substance?
Answer: decreased

Question: And the “Effect of E4 peptide on PAI-1” value [5]?
Answer: reduces; also recorded: Decrease
